US20210171598A1, “PEPTIDE HORMONE WITH ONE OR MORE O-GLYCANS” (priority 2017, published 2021)
Groups on a side chain read outwards from the residue. No end group written: not given here.

How the values were obtained:
[1] = system: male Sprague Dawley rats; assay: Acute cardiovascular and renal actions of i.v. infusion in anesthetized rats; assay type: in vivo; details: rat
Text: The protocol is outlined in FIG. 9A.
Rats were then subjected to vessel and bladder cannulation for peptide infusion, BP measurement, blood sampling and urine collection. A polyethylene (PE)-5G tube catheter was placed into the jugular vein for inulin, peptide intravenous infusion. The carotid artery was cannulated with a PE-50 tube catheter for BP measurement (Sonometrics, London, Ontario, Canada) and blood sampling. The bladder was accessed and cannulated with a PE-50 tube catheter for passive urine collection. After completion of the above procedural set up, a 45 min equilibration period was performed that included continuous IV inulin and saline infusion. After the 45 min equilibration period, baseline (Time==Q min) parameters were recorded and one blood sampling (0.7 ml) was performed. The inulin and saline infusion was replaced by a continuous intravenously (i.v.) infusion of equimolar ANP-Ser19/ST or ANP-Ser25/ST for 60 min. The infusion rate was weight adjusted and equals weight*0.7/6000 ml/min. After 60 min infusion (Time=60 min), another blood sampling (0.7 ml) was conducted. […] Urine was collected at the end of the infusion (Time=60 min) and the study (Time=90 min). Urinary sodium was measured with pHOx Ultra (Nova Biomedical, Waltham, Mass.). Urine flow (UV) and urinary sodium excretion (UNaV) were calculated as urine volume or sodium clearance per min, Inulin concentrations were measured with enthrone method and inulin clearance was used for GFR quantification. Urinary cGMP and ANP excretion rate was calculated based on raw values obtained in the urine and UV.

[2] = biological target: T1, insulin-degrading enzyme (IDE) (Homo sapiens, UniProt P14735); assay: In vitro degradation by insulin-degrading enzyme, MALDI-TOF time course; assay type: in vitro ADME
T1 construct: purchased R&D Systems
T1 sequence (P14735 1-1019): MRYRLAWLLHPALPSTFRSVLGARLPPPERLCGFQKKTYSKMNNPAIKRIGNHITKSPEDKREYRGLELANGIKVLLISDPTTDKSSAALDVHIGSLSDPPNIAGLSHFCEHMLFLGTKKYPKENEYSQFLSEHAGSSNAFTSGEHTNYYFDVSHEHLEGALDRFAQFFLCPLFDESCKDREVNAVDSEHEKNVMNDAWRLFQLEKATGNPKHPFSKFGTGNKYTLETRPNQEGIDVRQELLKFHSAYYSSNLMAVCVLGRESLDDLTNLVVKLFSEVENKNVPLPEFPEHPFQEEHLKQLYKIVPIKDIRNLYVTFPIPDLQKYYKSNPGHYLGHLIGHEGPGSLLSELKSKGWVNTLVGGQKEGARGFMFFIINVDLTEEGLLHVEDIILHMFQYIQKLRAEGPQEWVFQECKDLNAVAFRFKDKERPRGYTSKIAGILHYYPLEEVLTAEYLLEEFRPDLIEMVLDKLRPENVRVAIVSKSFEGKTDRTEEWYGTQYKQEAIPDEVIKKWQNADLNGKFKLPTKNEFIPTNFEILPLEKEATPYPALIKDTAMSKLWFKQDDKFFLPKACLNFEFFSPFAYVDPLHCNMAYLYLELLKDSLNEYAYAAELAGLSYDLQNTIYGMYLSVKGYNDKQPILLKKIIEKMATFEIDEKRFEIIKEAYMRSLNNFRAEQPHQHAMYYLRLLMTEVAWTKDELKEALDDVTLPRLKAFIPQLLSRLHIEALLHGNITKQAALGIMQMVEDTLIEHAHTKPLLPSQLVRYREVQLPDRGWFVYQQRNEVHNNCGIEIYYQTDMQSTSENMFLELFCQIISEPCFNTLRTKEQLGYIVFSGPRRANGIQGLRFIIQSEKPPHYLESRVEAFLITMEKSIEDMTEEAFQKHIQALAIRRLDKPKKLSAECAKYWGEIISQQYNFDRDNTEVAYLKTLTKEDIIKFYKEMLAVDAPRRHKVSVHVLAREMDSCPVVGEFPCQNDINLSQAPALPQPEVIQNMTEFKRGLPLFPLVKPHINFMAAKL
Protocol: Reactions were performed in 50 mM Tris, 0.05% Brij-35, pH 9 (Neprilysin), or 50 mM Tris, 20 mM NaCl, pH 7.5 (IDE) and incubated at 37° C.

[3] = biological target: T2, VIP/PACAP receptor VPAC1 (UniProt P32241 31-457); assay: cell-based or functional assay
T2 sequence (looked up): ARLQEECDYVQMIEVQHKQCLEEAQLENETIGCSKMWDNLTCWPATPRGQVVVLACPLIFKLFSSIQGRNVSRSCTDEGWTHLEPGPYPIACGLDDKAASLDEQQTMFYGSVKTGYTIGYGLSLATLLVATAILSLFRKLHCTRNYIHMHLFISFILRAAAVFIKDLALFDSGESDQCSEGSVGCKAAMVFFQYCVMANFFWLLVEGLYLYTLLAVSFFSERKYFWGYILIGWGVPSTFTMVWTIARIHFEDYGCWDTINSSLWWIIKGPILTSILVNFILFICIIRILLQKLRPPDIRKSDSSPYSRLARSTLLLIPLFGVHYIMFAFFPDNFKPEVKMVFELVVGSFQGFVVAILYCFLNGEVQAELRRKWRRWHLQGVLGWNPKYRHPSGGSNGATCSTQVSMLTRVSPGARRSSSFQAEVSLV

[4] = biological target: T3, VIP/PACAP receptor VPAC2 (UniProt P41587 24-438); assay: cell-based or functional assay
T3 sequence (looked up): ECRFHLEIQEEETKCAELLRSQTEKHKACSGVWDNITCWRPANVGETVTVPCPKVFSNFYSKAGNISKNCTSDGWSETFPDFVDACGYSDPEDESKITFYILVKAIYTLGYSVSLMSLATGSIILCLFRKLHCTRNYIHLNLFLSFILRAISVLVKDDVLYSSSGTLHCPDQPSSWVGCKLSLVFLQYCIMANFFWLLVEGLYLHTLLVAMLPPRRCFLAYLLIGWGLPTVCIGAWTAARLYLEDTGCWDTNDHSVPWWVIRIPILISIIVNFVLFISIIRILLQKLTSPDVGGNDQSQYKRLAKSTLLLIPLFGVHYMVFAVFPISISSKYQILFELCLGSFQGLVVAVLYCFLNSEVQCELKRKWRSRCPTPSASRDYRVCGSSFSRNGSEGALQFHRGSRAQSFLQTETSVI

[5] = 600 pmol/kg/min i.v., 60 minutes infusion

Row | Molecule | UV after a clearance period of 30 minutes [1] | change in mean arterial pressure (MAP) over the infusion period [1, 5] | change in plasma cGMP over the infusion period [1, 5] | MAP in the 30 minutes clearance period ([1]; after 60 min infusion) | time to complete degradation by insulin-degrading enzyme [2] [min] | potency, cAMP accumulation (HTRF) [3] [nM] | potency, cAMP accumulation (HTRF) [4] [nM]
1 | CC[C@H](C)[C@@H]1NC(=O)[C@H](CCCNC(=N)N)NC(=O)[C@H](CC(=O)O)NC(=O)[C@H](CCSC)NC(=O)[C@H](CCCNC(=N)N)NC(=O)CNC(=O)CNC(=O)[C@H](Cc2ccccc2)NC(=O)[C@@H](NC(=O)[C@H](CO)NC(=O)[C@H](CO)NC(=O)[C@H](CCCNC(=N)N)NC(=O)[C@H](CCCNC(=N)N)NC(=O)[C@H](CC(C)C)NC(=O)[C@@H](N)CO)CSSC[C@@H](C(=O)N[C@@H](CC(N)=O)C(=O)N[C@@H](CO)C(=O)N[C@@H](Cc2ccccc2)C(=O)N[C@@H](CCCNC(=N)N)C(=O)N[C@@H](Cc2ccc(O)cc2)C(=O)O)NC(=O)CNC(=O)[C@H](CC(C)C)NC(=O)CNC(=O)[C@H](CO)NC(=O)[C@H](CCC(N)=O)NC(=O)[C@H](C)NC(=O)CNC1=O [ANP, Atrial natriuretic factor, reference compound] | normalized | decrease | increase | rebounded | ≤ 15 | – | –
2 | HSDAVFT(GalNAc)DNYTRLRKQMAVKKYLNSILN [VIP with one O-glycan (GalNAc/Tn) at residue 7] | – | – | – | – | – | 102 | 242
3 | HSDAVFT([GalNAc-Gal-NeuAc])DNYTRLRKQMAVKKYLNSILN [VIP with ST O-glycan at Thr7] | – | – | – | – | – | 74 | 244
